From patent publication US12209087B2, “AKT1 modulators” (Alterome Therapeutics, Inc., priority 2022, dated 2025)

Biological target: T1, full length AKT E17K (Homo sapiens, UniProt P31749, E17K)
T1 construct: host or cells: HEK-293 (ATCC CRL-1573)
Assay: NanoBRET Target Engagement (TE) Assay
Assay type: cell-based
Conditions: competitive displacement of tracer in cells, read-out: AKT1 E17K IC50
In short: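 Compound and tracer incubated 2 h before luminescence at donor 450 nm and acceptor 600 nm, with extracellular signal inhibited. EC50 by sigmoidal variable-slope regression.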

T1 sequence (P31749 whole entry E17K): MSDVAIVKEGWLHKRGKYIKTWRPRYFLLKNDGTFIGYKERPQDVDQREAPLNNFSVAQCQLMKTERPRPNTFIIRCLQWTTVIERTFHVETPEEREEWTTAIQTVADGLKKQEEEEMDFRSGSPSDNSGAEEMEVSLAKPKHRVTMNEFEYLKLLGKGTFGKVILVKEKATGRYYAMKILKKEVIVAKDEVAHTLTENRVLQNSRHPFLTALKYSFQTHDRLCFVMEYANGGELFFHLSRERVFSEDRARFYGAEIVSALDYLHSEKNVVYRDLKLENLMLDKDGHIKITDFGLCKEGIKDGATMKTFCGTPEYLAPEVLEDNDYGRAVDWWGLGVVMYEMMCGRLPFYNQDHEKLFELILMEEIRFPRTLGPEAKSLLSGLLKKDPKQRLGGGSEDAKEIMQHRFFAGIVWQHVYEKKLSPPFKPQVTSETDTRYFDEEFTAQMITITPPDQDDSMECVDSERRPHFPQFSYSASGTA

Row | SMILES | IC50 [µM]
1 | [2H]C([2H])([2H])n1ncc(-c2ccc3nc(-c4nccnc4N)n(-c4ccc(CN5CCC(Nc6ccnc(C#N)n6)CC5)cc4)c3n2)n1 [Example 621, 4-((1-(4-(2-(3-Aminopyrazin-2-yl)-5-(2-(methyl-d3)-2H-1,2,3-triazol-4-yl)-3H-imidazo[4,5-b]pyridin-3-yl)benzyl)piperidin-4-yl)amino)pyrimidine-2-carbonitrile] | < 0.015
2 | N#Cc1nccc(NC2CCN(Cc3ccc(-n4c(-c5conc5N)nc5ccc(-c6ccc(F)cn6)nc54)cc3)CC2)n1 [Example 622, 4-((1-(4-(2-(3-Aminoisoxazol-4-yl)-5-(5-fluoropyridin-2-yl)-3H-imidazo[4,5-b]pyridin-3-yl)benzyl)piperidin-4-yl)amino)pyrimidine-2-carbonitrile] | 0.06 to 0.6
3 | [2H]C([2H])(F)n1cc(-c2ccc3nc(-c4cccnc4N)n(-c4ccc(CN5CCC(Nc6ccnc(C#N)n6)CC5)cc4)c3n2)ccc1=O [Example 624, 4-((1-(4-(2-(2-Aminopyridin-3-yl)-5-(1-(fluoromethyl-d2)-6-oxo-1,6-dihydropyridin-3-yl)-3H-imidazo[4,5-b]pyridin-3-yl)benzyl)piperidin-4-yl)amino)pyrimidine-2-carbonitrile] | 0.015 to 0.06
4 | N#Cc1nccc(NC2CCN(Cc3ccc(-n4c(-c5nccnc5N)nc5ccc(-c6cn(CF)nn6)nc54)cc3)CC2)n1 [Example 628, 4-((1-(4-(2-(3-Aminopyrazin-2-yl)-5-(1-(fluoromethyl)-1H-1,2,3-triazol-4-yl)-3H-imidazo[4,5-b]pyridin-3-yl)benzyl)piperidin-4-yl)amino)pyrimidine-2-carbonitrile] | < 0.015
5 | CC(C)n1ncc(-c2ccc3nc(-c4nccnc4N)n(-c4ccc(CN5CCC(Nc6ccnc(C#N)n6)CC5)cc4)c3n2)n1 [Example 630, 4-((1-(4-(2-(3-Aminopyrazin-2-yl)-5-(2-isopropyl-2H-1,2,3-triazol-4-yl)-3H-imidazo[4,5-b]pyridin-3-yl)benzyl)piperidin-4-yl)amino)pyrimidine-2-carbonitrile] | < 0.015
6 | N#Cc1nccc(NC2CCN(Cc3ccc(-n4c(-c5nccnc5N)nc5ccc(-c6cnn(C7CC7)n6)nc54)cc3)CC2)n1 [Example 631, 4-((1-(4-(2-(3-Aminopyrazin-2-yl)-5-(2-cyclopropyl-2H-1,2,3-triazol-4-yl)-3H-imidazo[4,5-b]pyridin-3-yl)benzyl)piperidin-4-yl)amino)pyrimidine-2-carbonitrile] | < 0.015
7 | [2H]c1nn(C)nc1-c1ccc2nc(-c3nccnc3N)n(-c3ccc(CN4CCC(Nc5ccnc(C#N)n5)CC4)cc3)c2n1 [Example 634, 4-((1-(4-(2-(3-Aminopyrazin-2-yl)-5-(2-methyl-2H-1,2,3-triazol-4-yl-5-d)-3H-imidazo[4,5-b]pyridin-3-yl)benzyl)piperidin-4-yl)amino)pyrimidine-2-carbonitrile] | < 0.015
8 | Cc1nn(C)nc1-c1ccc2nc(-c3nccnc3N)n(-c3ccc(CN4CCC(Nc5ccnc(C#N)n5)CC4)cc3)c2n1 [Example 635, 4-((1-(4-(2-(3-Aminopyrazin-2-yl)-5-(2,5-dimethyl-2H-1,2,3-triazol-4-yl)-3H-imidazo[4,5-b]pyridin-3-yl)benzyl)piperidin-4-yl)amino)pyrimidine-2-carbonitrile] | 0.015 to 0.06
9 | COc1ccc(-c2ccc3nc(-c4nccnc4N)n(-c4ccc(CN5CCC(Nc6ccnc(C#N)n6)CC5)cc4)c3n2)cn1 [Example 636, 4-((1-(4-(2-(3-Aminopyrazin-2-yl)-5-(6-methoxypyridin-3-yl)-3H-imidazo[4,5-b]pyridin-3-yl)benzyl)piperidin-4-yl)amino)pyrimidine-2-carbonitrile] | < 0.015
10 | [2H]C([2H])([2H])Oc1ccc(-c2ccc3nc(-c4nccnc4N)n(-c4ccc(CN5CCC(Nc6ccnc(C#N)n6)CC5)cc4)c3n2)cn1 [Example 637, 4-((1-(4-(2-(3-aminopyrazin-2-yl)-5-(6-(methoxy-d3)pyridin-3-yl)-3H-imidazo[4,5-b]pyridin-3-yl)benzyl)piperidin-4-yl)amino)pyrimidine-2-carbonitrile] | < 0.015
11 | [2H]C([2H])([2H])Oc1ccc(-c2ccc3nc(-c4nccnc4N)n(-c4ccc(CN5CCC(Nc6ccnc(C#N)n6)CC5)cc4)c3n2)nc1 [Example 638, 4-((1-(4-(2-(3-Aminopyrazin-2-yl)-5-(5-(methoxy-d3)pyridin-2-yl)-3H-imidazo[4,5-b]pyridin-3-yl)benzyl)piperidin-4-yl)amino)pyrimidine-2-carbonitrile] | < 0.015
12 | N#Cc1nccc(NC2CCN(Cc3ccc(-n4c(-c5nccnc5N)nc5ccc(-c6ccc(OCF)nc6)nc54)cc3)CC2)n1 [Example 639, 4-((1-(4-(2-(3-Aminopyrazin-2-yl)-5-(6-(fluoromethoxy)pyridin-3-yl)-3H-imidazo[4,5-b]pyridin-3-yl)benzyl)piperidin-4-yl)amino)pyrimidine-2-carbonitrile] | < 0.015
13 | [2H]C([2H])(F)Oc1ccc(-c2ccc3nc(-c4nccnc4N)n(-c4ccc(CN5CCC(Nc6ccnc(C#N)n6)CC5)cc4)c3n2)cn1 [Example 640, 4-((1-(4-(2-(3-Aminopyrazin-2-yl)-5-(6-(fluoromethoxy-d2)pyridin-3-yl)-3H-imidazo[4,5-b]pyridin-3-yl)benzyl)piperidin-4-yl)amino)pyrimidine-2-carbonitrile] | < 0.015
14 | N#Cc1nccc(NC2CCN(Cc3ccc(-n4c(-c5cccnc5N)nc5ccc(-c6ccc(OC7CC7)nc6)nc54)cc3)CC2)n1 [Example 641, 4-((1-(4-(2-(2-Aminopyridin-3-yl)-5-(6-cyclopropoxypyridin-3-yl)-3H-imidazo[4,5-b]pyridin-3-yl)benzyl)piperidin-4-yl)amino)pyrimidine-2-carbonitrile] | < 0.015
15 | CC(C)Oc1ccc(-c2ccc3nc(-c4cccnc4N)n(-c4ccc(CN5CCC(Nc6ccnc(C#N)n6)CC5)cc4)c3n2)cn1 [Example 642, 4-((1-(4-(2-(2-Aminopyridin-3-yl)-5-(6-isopropoxypyridin-3-yl)-3H-imidazo[4,5-b]pyridin-3-yl)benzyl)piperidin-4-yl)amino)pyrimidine-2-carbonitrile] | < 0.015

Other lines, results leading:

Row | IC50 [µM] | SMILES
16 | < 0.015 | N#Cc1nccc(NC2CCN(Cc3ccc(-n4c(-c5cccnc5N)nc5ccc(-c6cnn(C(F)F)n6)nc54)cc3)CC2)n1 [Example 620, 4-((1-(4-(2-(2-Aminopyridin-3-yl)-5-(2-(difluoromethyl)-2H-1,2,3-triazol-4-yl)-3H-imidazo[4,5-b]pyridin-3-yl)benzyl)piperidin-4-yl)amino)pyrimidine-2-carbonitrile]
17 | < 0.015 | [2H]C([2H])(F)Oc1ccc(-c2ccc3nc(-c4cccnc4N)n(-c4ccc(CN5CCC(Nc6ccnc(C#N)n6)CC5)cc4)c3n2)cn1 [Example 623, 4-((1-(4-(2-(2-Aminopyridin-3-yl)-5-(6-(fluoromethoxy-d2)pyridin-3-yl)-3H-imidazo[4,5-b]pyridin-3-yl)benzyl)piperidin-4-yl)amino)pyrimidine-2-carbonitrile]
18 | < 0.015 | CCn1cc(-c2ccc3nc(-c4cccnc4N)n(-c4ccc(CN5CCC(Nc6ccnc(C#N)n6)CC5)cc4)c3n2)nn1 [Example 625, 4-((1-(4-(2-(2-Aminopyridin-3-yl)-5-(1-ethyl-1H-1,2,3-triazol-4-yl)-3H-imidazo[4,5-b]pyridin-3-yl)benzyl)piperidin-4-yl)amino)pyrimidine-2-carbonitrile]
19 | < 0.015 | N#CCn1ncc(-c2ccc3nc(-c4cccnc4N)n(-c4ccc(CN5CCC(Nc6ccnc(C#N)n6)CC5)cc4)c3n2)n1 [Example 626, 4-((1-(4-(2-(2-Aminopyridin-3-yl)-5-(2-(cyanomethyl)-2H-1,2,3-triazol-4-yl)-3H-imidazo[4,5-b]pyridin-3-yl)benzyl)piperidin-4-yl)amino)pyrimidine-2-carbonitrile]
20 | < 0.015 | N#Cc1nccc(NC2CCN(Cc3ccc(-n4c(-c5nccnc5N)nc5ccc(-c6cnn(CF)n6)nc54)cc3)CC2)n1 [Example 627, 4-((1-(4-(2-(3-Aminopyrazin-2-yl)-5-(2-(fluoromethyl)-2H-1,2,3-triazol-4-yl)-3H-imidazo[4,5-b]pyridin-3-yl)benzyl)piperidin-4-yl)amino)pyrimidine-2-carbonitrile]
21 | < 0.015 | CCn1ncc(-c2ccc3nc(-c4nccnc4N)n(-c4ccc(CN5CCC(Nc6ccnc(C#N)n6)CC5)cc4)c3n2)n1 [Example 629, 4-((1-(4-(2-(3-Aminopyrazin-2-yl)-5-(2-ethyl-2H-1,2,3-triazol-4-yl)-3H-imidazo[4,5-b]pyridin-3-yl)benzyl)piperidin-4-yl)amino)pyrimidine-2-carbonitrile]
22 | < 0.015 | N#CCn1ncc(-c2ccc3nc(-c4nccnc4N)n(-c4ccc(CN5CCC(Nc6ccnc(C#N)n6)CC5)cc4)c3n2)n1 [Example 632, 4-((1-(4-(2-(3-Aminopyrazin-2-yl)-5-(2-(cyanomethyl)-2H-1,2,3-triazol-4-yl)-3H-imidazo[4,5-b]pyridin-3-yl)benzyl)piperidin-4-yl)amino)pyrimidine-2-carbonitrile]
23 | 0.015 to 0.06 | N#Cc1nccc(NC2CCN(Cc3ccc(-n4c(-c5nccnc5N)nc5ccc(-c6cnn(CC(N)=O)n6)nc54)cc3)CC2)n1 [Example 633, 2-(4-(2-(3-aminopyrazin-2-yl)-3-(4-((4-((2-cyanopyrimidin-4-yl)amino)piperidin-1-yl)methyl)phenyl)-3H-imidazo[4,5-b]pyridin-5-yl)-2H-1,2,3-triazol-2-yl)acetamide]
24 | < 0.015 | CC(C)c1ccc(-c2ccc3nc(-c4cccnc4N)n(-c4ccc(CN5CCC(Nc6ccnc(C#N)n6)CC5)cc4)c3n2)cn1 [Example 643, 4-((1-(4-(2-(2-Aminopyridin-3-yl)-5-(6-isopropylpyridin-3-yl)-3H-imidazo[4,5-b]pyridin-3-yl)benzyl)piperidin-4-yl)amino)pyrimidine-2-carbonitrile]
25 | < 0.015 | N#Cc1nccc(NC2CCN(Cc3ccc(-n4c(-c5cccnc5N)nc5ccc(-c6ccc(C7CC7)cn6)nc54)cc3)CC2)n1 [Example 644, 4-((1-(4-(2-(2-Aminopyridin-3-yl)-5-(5-cyclopropylpyridin-2-yl)-3H-imidazo[4,5-b]pyridin-3-yl)benzyl)piperidin-4-yl)amino)pyrimidine-2-carbonitrile]
